# Measured values: ChEMBL document CHEMBL4354881, “Optimization of Potent ATAD2 and CECR2 Bromodomain Inhibitors with an Atypical Binding Mode” (J Med Chem, 2020)
# pIC50, pKd: −log10 of the molar value.
# Experiments:
# [1] = Permeability of the compound by artificial lipid membrane-based method; type: ADME; conditions: not told; read-out: permeability
# [2] = molecular target: Bromodomain-containing protein 4 (Homo sapiens, UniProt O60885); assay: Displacement of Alexa Fluor 647-labeled ligand from BRD4 BD2 (unknown origin) measured after 30 mins by TR-FRET assay
# [3] = molecular target: T1, ATPase family AAA domain-containing protein 2 (Homo sapiens, UniProt Q6PL18); assay: Binding affinity to human partial length ATAD2A (Q981 to R1108 residues) expressed in bacterial expression system by BROMOscan assay
# T1 sequence (Q6PL18 whole entry): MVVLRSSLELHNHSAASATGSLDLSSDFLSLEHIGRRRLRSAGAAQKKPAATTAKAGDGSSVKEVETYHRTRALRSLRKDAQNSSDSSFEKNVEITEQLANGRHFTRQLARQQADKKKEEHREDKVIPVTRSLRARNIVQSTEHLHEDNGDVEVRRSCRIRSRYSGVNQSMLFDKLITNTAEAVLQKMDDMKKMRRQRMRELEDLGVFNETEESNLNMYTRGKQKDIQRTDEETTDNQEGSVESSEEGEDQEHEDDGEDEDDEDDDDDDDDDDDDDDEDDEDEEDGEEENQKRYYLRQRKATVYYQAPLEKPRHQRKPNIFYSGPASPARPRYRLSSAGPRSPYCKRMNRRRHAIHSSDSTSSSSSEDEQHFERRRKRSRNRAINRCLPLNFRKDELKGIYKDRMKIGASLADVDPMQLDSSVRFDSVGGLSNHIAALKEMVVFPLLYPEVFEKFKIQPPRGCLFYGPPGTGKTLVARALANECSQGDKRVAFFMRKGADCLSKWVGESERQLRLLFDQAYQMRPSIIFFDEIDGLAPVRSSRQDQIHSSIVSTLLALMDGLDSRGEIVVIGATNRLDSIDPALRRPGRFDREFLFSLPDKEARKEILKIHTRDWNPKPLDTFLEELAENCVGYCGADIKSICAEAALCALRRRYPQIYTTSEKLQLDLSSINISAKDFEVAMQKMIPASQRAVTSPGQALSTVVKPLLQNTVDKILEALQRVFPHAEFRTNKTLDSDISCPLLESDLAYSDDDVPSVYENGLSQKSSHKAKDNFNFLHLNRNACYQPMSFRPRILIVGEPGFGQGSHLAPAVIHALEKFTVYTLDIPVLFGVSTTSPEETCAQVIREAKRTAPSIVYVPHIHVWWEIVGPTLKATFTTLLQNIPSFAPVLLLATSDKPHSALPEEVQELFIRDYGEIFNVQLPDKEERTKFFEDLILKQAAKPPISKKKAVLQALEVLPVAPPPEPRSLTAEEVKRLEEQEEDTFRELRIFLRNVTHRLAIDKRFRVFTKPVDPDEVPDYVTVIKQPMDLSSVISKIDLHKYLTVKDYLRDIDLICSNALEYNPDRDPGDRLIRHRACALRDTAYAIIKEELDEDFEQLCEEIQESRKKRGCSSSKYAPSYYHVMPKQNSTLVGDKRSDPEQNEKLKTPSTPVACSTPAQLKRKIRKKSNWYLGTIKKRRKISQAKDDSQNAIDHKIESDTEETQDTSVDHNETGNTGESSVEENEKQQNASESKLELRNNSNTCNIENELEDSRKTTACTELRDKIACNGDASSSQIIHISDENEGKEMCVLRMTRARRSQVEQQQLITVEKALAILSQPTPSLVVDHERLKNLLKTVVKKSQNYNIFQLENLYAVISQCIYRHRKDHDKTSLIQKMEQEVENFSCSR
# [4] = molecular target: Bromodomain adjacent to zinc finger domain protein 2A (Homo sapiens, UniProt Q9UIF9); assay: Binding affinity to human partial length BAZ2A (M1792 to L1905 residues) expressed in bacterial expression system by BROMOscan assay
# [5] = molecular target: T2, Bromodomain and PHD finger-containing protein 3 (Homo sapiens, UniProt Q9ULD4); assay: Binding affinity to human partial length BRPF3 (E588 to G701 residues) expressed in bacterial expression system by BROMOscan assay
# T2 sequence (Q9ULD4 whole entry): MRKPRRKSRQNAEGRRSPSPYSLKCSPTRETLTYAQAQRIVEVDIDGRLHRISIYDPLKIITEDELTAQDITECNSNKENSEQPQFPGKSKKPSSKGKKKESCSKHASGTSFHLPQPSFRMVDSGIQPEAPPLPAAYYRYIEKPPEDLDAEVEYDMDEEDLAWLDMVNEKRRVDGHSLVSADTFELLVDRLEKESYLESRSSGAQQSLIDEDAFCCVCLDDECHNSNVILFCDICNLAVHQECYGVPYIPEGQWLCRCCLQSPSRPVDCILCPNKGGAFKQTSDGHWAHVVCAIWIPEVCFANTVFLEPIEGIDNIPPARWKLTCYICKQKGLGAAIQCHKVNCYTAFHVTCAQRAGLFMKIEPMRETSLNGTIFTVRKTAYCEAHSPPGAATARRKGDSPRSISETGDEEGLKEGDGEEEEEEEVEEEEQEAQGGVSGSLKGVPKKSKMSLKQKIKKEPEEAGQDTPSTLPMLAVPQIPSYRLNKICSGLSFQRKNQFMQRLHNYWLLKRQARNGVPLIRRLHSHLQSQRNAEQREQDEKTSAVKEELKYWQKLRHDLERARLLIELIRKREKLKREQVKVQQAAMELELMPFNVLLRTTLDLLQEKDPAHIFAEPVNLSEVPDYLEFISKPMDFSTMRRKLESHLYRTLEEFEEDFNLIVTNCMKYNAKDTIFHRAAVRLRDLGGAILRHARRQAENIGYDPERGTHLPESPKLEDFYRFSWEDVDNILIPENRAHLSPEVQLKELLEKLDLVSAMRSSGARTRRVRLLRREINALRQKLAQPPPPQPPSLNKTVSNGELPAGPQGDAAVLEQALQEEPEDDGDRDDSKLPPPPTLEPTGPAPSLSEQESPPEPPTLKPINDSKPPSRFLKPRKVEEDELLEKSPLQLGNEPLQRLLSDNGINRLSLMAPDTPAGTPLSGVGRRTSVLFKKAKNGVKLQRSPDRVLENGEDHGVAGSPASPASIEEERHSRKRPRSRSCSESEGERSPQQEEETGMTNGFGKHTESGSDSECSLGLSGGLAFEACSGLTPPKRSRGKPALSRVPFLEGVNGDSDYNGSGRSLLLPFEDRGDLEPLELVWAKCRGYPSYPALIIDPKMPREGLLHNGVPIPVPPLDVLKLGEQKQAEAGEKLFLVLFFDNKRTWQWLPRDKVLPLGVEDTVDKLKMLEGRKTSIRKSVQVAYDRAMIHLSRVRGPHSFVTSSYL
# [6] = molecular target: Histone acetyltransferase KAT2A (Homo sapiens, UniProt Q92830); assay: Binding affinity to human partial length GCN5L2 (E726 to K837 residues) expressed in bacterial expression system by BROMOscan assay
# [7] = molecular target: Transcription initiation factor TFIID subunit 1-like (Homo sapiens, UniProt Q8IZX4); assay: Binding affinity to human partial length TAF1L bromodomain 2 (Q1523 to D1654 residues) expressed in bacterial expression system by BROMOscan assay
# Chain of Transcription initiation factor TFIID subunit 1-like (Q8IZX4 whole entry, the tested form may be a part): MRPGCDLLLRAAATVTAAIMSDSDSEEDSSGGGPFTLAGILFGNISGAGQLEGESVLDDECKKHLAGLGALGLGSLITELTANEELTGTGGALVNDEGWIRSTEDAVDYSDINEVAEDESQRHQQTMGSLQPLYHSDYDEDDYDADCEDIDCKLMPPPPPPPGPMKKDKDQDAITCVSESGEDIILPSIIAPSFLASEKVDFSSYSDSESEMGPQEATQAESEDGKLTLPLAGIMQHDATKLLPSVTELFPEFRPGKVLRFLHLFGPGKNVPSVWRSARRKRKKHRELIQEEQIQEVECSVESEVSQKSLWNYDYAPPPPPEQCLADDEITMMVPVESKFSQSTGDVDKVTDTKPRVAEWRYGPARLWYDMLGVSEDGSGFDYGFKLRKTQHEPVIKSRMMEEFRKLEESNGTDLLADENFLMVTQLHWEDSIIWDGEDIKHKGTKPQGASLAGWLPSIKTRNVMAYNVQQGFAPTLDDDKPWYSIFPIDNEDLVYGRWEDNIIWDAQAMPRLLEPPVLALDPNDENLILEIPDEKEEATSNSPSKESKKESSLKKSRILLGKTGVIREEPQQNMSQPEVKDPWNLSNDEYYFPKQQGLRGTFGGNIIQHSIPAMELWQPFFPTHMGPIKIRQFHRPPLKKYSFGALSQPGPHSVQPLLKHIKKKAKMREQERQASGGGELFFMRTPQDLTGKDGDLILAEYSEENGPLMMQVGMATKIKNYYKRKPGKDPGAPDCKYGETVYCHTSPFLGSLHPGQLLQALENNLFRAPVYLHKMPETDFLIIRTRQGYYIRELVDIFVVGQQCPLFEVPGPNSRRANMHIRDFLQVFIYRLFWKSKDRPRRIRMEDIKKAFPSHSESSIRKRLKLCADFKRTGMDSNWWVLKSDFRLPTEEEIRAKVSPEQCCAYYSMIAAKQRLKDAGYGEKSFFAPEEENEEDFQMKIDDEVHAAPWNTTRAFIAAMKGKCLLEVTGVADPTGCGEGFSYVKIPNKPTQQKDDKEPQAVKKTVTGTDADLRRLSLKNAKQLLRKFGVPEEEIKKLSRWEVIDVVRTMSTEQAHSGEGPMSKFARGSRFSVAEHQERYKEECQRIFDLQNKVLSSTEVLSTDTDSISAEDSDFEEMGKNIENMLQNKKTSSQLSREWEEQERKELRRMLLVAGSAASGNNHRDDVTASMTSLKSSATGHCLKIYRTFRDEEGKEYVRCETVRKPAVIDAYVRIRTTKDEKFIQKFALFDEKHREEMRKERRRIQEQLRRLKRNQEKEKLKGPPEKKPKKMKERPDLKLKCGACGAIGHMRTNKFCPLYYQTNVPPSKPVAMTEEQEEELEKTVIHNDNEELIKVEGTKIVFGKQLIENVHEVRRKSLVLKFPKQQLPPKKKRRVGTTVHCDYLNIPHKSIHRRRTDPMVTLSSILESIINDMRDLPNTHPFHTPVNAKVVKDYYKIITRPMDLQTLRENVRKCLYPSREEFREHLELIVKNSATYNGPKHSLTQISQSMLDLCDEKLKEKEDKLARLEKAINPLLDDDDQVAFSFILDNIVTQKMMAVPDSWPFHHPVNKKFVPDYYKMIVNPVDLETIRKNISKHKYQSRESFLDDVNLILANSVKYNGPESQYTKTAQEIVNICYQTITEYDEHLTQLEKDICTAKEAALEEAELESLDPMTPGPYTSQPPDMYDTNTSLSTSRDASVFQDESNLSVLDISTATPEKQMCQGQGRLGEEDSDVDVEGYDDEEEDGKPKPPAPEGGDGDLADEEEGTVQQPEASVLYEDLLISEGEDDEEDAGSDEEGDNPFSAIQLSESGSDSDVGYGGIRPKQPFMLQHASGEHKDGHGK
# Chain of Histone acetyltransferase KAT2A (Q92830 whole entry, the tested form may be a part): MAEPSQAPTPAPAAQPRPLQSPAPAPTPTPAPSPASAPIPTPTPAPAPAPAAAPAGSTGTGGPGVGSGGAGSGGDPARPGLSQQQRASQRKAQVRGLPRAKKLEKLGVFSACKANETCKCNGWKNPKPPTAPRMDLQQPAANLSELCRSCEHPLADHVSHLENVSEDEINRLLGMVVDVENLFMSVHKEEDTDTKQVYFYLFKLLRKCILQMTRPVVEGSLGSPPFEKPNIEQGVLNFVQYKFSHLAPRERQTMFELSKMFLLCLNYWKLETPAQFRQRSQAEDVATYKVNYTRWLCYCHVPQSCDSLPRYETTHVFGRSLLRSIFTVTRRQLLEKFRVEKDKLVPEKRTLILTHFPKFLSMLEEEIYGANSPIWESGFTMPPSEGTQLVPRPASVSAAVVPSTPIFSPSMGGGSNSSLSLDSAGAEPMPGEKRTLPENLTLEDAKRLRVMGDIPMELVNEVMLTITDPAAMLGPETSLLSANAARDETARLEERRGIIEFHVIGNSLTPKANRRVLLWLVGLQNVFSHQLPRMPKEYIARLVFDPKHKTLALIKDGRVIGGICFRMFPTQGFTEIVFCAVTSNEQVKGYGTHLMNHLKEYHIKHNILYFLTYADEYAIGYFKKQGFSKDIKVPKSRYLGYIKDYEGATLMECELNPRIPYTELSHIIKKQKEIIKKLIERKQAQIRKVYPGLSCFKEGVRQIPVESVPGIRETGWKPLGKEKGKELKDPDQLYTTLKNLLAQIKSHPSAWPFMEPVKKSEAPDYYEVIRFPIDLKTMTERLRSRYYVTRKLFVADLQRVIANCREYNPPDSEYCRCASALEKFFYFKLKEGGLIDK
# Chain of Bromodomain adjacent to zinc finger domain protein 2A (Q9UIF9 whole entry, the tested form may be a part): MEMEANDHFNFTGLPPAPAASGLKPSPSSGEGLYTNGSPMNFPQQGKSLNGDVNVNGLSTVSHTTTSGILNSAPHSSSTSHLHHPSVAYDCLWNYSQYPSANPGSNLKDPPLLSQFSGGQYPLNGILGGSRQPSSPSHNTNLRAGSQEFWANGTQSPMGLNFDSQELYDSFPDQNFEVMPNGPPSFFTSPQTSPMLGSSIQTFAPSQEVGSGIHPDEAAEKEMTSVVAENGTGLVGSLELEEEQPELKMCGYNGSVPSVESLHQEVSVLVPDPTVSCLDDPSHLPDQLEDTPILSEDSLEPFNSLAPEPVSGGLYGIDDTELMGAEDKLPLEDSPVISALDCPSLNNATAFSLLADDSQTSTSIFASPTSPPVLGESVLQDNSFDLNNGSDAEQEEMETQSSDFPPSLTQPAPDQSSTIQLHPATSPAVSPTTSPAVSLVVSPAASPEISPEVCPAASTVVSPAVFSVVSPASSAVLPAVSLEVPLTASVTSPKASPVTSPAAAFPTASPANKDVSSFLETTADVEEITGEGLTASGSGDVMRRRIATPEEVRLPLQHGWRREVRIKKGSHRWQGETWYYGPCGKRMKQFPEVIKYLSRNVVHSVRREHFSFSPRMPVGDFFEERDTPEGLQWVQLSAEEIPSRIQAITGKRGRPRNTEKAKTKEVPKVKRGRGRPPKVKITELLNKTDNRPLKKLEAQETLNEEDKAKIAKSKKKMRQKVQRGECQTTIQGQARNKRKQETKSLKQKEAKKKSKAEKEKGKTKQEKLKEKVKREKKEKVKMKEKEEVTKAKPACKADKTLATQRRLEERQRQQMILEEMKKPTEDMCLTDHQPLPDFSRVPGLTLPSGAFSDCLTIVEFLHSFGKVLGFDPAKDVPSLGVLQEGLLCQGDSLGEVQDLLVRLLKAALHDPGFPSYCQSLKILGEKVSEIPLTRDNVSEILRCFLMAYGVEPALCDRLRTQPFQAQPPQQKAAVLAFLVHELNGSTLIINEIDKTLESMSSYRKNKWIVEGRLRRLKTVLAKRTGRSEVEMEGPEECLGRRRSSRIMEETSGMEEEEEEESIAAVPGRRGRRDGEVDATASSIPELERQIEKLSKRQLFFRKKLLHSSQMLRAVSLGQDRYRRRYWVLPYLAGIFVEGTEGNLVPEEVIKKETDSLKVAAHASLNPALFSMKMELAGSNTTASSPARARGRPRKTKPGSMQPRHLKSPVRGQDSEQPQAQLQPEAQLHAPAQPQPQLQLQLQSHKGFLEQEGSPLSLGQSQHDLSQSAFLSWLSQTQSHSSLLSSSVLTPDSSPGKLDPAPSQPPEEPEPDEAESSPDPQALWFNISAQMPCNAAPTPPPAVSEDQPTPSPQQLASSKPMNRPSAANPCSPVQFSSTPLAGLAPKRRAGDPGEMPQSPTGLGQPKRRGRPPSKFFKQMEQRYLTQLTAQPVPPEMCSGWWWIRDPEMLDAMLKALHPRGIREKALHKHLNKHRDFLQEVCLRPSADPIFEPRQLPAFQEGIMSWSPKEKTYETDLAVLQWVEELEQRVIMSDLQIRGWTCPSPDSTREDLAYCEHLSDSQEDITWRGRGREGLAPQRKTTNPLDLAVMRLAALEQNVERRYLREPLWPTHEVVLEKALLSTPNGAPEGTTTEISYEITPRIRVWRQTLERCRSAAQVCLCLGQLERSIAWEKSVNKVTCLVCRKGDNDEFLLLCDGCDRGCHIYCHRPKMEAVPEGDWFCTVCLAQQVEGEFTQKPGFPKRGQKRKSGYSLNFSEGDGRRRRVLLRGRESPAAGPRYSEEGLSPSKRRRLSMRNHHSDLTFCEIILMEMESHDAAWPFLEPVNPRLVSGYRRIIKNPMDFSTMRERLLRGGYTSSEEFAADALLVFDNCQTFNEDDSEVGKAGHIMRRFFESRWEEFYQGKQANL
smiles,measurement,setting,value
C[C@H]1CCN(S(=O)(=O)c2cc(NC(=O)CN3C(=O)N[C@@](C)(C4CC4)C3=O)ccc2Br)C1,Papp,[1],9.9 ×10⁻⁶ cm/s
same,pIC50,[2],4.90
same,pKd,[3],8.00
same,pKd,[4],7.80
same,pKd,[5],6.90
same,pKd,[6],6.60
same,pKd,[7],7.60
